Patent publication US8178547B2, “Heterocyclic antiviral compounds” (Roche Palo Alto LLC, priority 2008, dated 2012)

Experiments:
[1] = test system: HCV replicon cells (2209-23), genotype 1b replicon; assay: HCV replicon assay (Renilla luciferase reporter); type: cell-based, HCV genotype 1b; conditions: Hepatitis C virus, 72 h; 2209-23 cells, three days incubation
[2] = target: T1, HCV polymerase (NS5B570n-Con1) (Hepatitis C virus genotype 1b, UniProt Q9WMX2); assay: HCV NS5B RNA polymerase activity; type: biochemical, HCV Con1 strain
T1 construct: a 21 amino acid C-terminal deletion of full-length HCV polymerase; made in house; host or cells: E. coli BL21(DE3) pLysS, plasmid pET17b
Description: The enzymatic activity of HCV polymerase (NS5B570n-Con1) was measured as the incorporation of radiolabeled nucleotide monophosphates into acid insoluble RNA products. Unincorporated radiolabeled substrate was removed by filtration and scintillant was added to the washed and dried filter plate containing radiolabeled RNA product. The amount of RNA product generated by NS5B570n-Con1 at the end of the reaction was directly proportional to the amount of light emitted by the scintillant.
The HCV polymerase used in the enzymatic activity assay is a 21 amino acid C-terminal deletion of full-length HCV polymerase derived from HCV Con1 strain, genotype 1b (GenBank accession number AJ242654) (NS5B570n-Con1). The NS5B570n-Con1 was sub-cloned downstream to the T7 promoter of the plasmid expression construct pET17b and transformed into E. coli strain BL21(DE3) pLysS for protein expression. A single colony was used to start an innoculum for a 10 L culture in LB media supplemented with 100 μg/mL ampicillin at 37° C. Protein expression was induced by the addition of 0.25 mM isopropyl-β-D-thiogalactopyranoside (IPTG) when the optical density of the culture at […] was 0.8. Induction of protein expression was carried out at 30° C. for 16 h after which the cells were harvested by centrifugation. NS5B570n-Con1 was purified to homogeneity using a three-column purification protocol including subsequent column chromatography on Ni-NTA, SP-Sepharose HP and Superdex 75 resins.
[…] TRK-412; specific activity: 30 to 60 Ci/mmol;), 1 μM each ATP, CTP, and GTP, 40 mM Tris-HCl pH 8.0, 40 mM NaCl, 4 mM DTT (dithiothreitol), 4 mM MgCl2, 5 μl of compound serial diluted in DMSO, and nuclease-free water to a final reaction volume of 50 μl. Enzymatic reactions in the presence of poly A RNA template (see section 0004) contained 20 nM Poly A:oligo(rU)16 premixed (see section 0004), 20 nM NS5B570n-Con1 enzyme, 1 μCi of tritiated UTP (Perkin Elmer catalog no. TRK-412; specific activity: 30 to 60 Ci/mmol), 40 mM Tris-HCl pH 8.0, 40 mM NaCl, 4 mM DTT (dithiothreitol), 4 mM MgCl2, 5 μl of compound serial diluted in DMSO, and nuclease-free water to a final reaction volume of 50 μl. Reaction mixtures were assembled in 96-well filter plates (cat #MADVN0B, Millipore Co.) and incubated for 2 h at 30° C. Reactions were stopped by addition of 10% final (v/v) trichloroacetic acid and incubated for 40 min at 4° C. Reactions were filtered, washed with 8 reaction volumes of 10% (v/v) trichloroacetic acetic acid, 4 reaction volumes of 70% (v/v) ethanol, air dried, and 25 μl of scintillant (Microscint 20, Perkin-Elmer) was added to each reaction well.
Two RNA templates were used to assay compounds described herein. The cIRES RNA template was 377 nucleotide long and consisted of a partial complementary sequence (36 nucleotides) of the core protein, followed by 341 nucleotide of the complementary sequence of the internal ribosome entry site. The poly A RNA template (GE Amersham catalog number 27-4110) was a homopolymeric RNA pre-annealed to a oligo(rU)16 primer at a molar ratio of 3-to-1 (primer-template).
The amount of light emitted from the scintillant was converted to counts per minute (CPM) on a Topcount® plate reader (Perkin-Elmer, Energy Range: Low, Efficiency Mode: Normal, Count Time: 1 min, Background Subtract: none, Cross talk reduction: Off).
Data was analyzed in Excel® (Microsoft) and ActivityBase® (Idbs®). The reaction in the absence of enzyme was used to determine the background signal, which was subtracted from the enzymatic reactions. […] All data was expressed as a percentage of the positive control. The compound concentration at which the enzyme-catalyzed rate of RNA synthesis was reduced by 50%

[3] = in vitro; conditions: human
[4] = test system: HCV; conditions: cited from earlier work
[5] = NS5B pol inhibition IC50, as in Example 32 (20 nM RNA template)
[6] = NS5B pol inhibition IC50, cell values marked ^2, as in Example 32 except RNA template concentration 3 nM (footnote 3)

## COc1c(CCc2ccc(NS(C)(=O)=O)cc2)cc(-c2ncc[nH]c2=O)cc1C(C)(C)C [Compound I-1, N-(4-{2-[3-tert-Butyl-2-methoxy-5-(3-oxo-3,4-dihydro-pyrazin-2-yl)-phenyl]-ethyl}-phenyl)-methanesulfonamide]
other
  melting point: 238 to 240 °C
[1]
  IC50: 112 nM
[2]; [5]
  IC50: 15 nM
[3]
  CC50: 24200 nM

## COc1c(NC(=O)c2ccc(NS(C)(=O)=O)cc2)cc(-c2ncc[nH]c2=O)cc1C(C)(C)C [Compound I-4, N-[3-tert-Butyl-2-methoxy-5-(3-oxo-3,4-dihydro-pyrazin-2-yl)-phenyl]-4-methanesulfonylamino-benzamide]
[1]
  IC50: 347 nM
[2]; [5]
  IC50: 6 nM

## COc1c(/C=C/c2ccc(NS(C)(=O)=O)cc2C(=O)O)cc(-c2ccn[nH]c2=O)cc1C(C)(C)C [Compound I-9, 2-{(E)-2-[3-tert-Butyl-2-methoxy-5-(3-oxo-2,3-dihydro-pyridazin-4-yl)-phenyl]-vinyl}-5-methanesulfonylamino-benzoic acid]
[1]
  IC50: 71 nM
[2]; [5]
  IC50: 0.2 nM

## COc1c(/C=C/c2ccc(NS(C)(=O)=O)cc2)cc(-c2ccn[nH]c2=O)cc1C(C)(C)C [Compound I-13, N-(4-{(E)-2-[3-tert-Butyl-2-methoxy-5-(3-oxo-2,3-dihydro-pyridazin-4-yl)-phenyl]-vinyl}-phenyl)-methanesulfonamide]
[1]
  IC50: 1 nM
[2]; [5]
  IC50: 4 nM

## CC1(C)COc2c(-c3ccn[nH]c3=O)cc(/C=C/c3ccc(NS(C)(=O)=O)cc3)cc21 [Compound I-21, N-(4-{(E)-2-[3,3-Dimethyl-7-(3-oxo-2,3-dihydro-pyridazin-4-yl)-2,3-dihydro-benzofuran-5-yl]-vinyl}-phenyl)-methanesulfonamide]
other
  melting point: 255 to 257 °C
[1]
  IC50: 113 nM
[2]; [6]
  IC50: 2 nM

## COc1c(/C=C/c2ccc(NS(C)(=O)=O)cc2)cc(-c2cnc[nH]c2=O)cc1C(C)(C)C [Compound I-22, N-(4-{(E)-2-[3-tert-Butyl-2-methoxy-5-(6-oxo-1,6-dihydro-pyrimidin-5-yl)-phenyl]-vinyl}-phenyl)-methanesulfonamide]
[2]; [6]
  IC50: 2 nM
[3]
  CC50: 23200 nM

## COC(=O)c1cc(NS(C)(=O)=O)ccc1/C=C/c1cc(-c2cnc(OCc3ccccc3)[nH]c2=O)cc(C(C)(C)C)c1OC [Compound I-24]
[1]
  IC50: 40 nM
[2]; [6]
  IC50: 11 nM
[3]
  CC50: 4700 nM

## COc1c(/C=C/c2ccc(NS(C)(=O)=O)cc2)cc(-c2c[nH]c(=O)[nH]c2=O)c2c1C(C)(C)CO2 [Compound I-28, N-(4-{(E)-2-[7-(2,4-dioxo-1,2,3,4-tetrahydro-pyrimidin-5-yl)-4-methoxy-3,3-dimethyl-2,3-dihydro-benzofuran-5-yl]-vinyl}-phenyl)-methanesulfonamide]
other
  melting point: > 300 °C
[2]; [5]
  IC50: 0.6 nM

## COc1c(/C=C/c2ccc(NS(C)(=O)=O)cc2)cc(-c2c[nH]c(=O)[nH]c2=O)cc1C1(C(F)F)CC1 [Compound I-30, N-(4-{(E)-2-[3-(1-Difluoromethyl-cyclopropyl)-5-(2,4-dioxo-1,2,3,4-tetrahydro-pyrimidin-5-yl)-2-methoxy-phenyl]-vinyl}-phenyl)-methanesulfonamide]
other
  melting point: 292 to 295 °C
[2]; [5]
  IC50: 0.3 nM

## COc1c(/C=C/c2ccc(NS(C)(=O)=O)cc2)cc(-c2ncc[nH]c2=O)cc1C1(C(F)F)CC1 [Compound I-31, N-(4-{(E)-2-[3-(1-Difluoromethyl-cyclopropyl)-2-methoxy-5-(3-oxo-3,4-dihydro-pyrazin-2-yl)-phenyl]-vinyl}-phenyl)-methanesulfonamide]
other
  melting point: 241 to 243 °C
[2]; [5]
  IC50: 0.3 nM

## COc1c(/C=C/c2ccc(NS(C)(=O)=O)cc2)cc(-c2cnc(Cl)[nH]c2=O)cc1C(C)(C)C [Compound I-32, N-(4-{(E)-2-[3-tert-Butyl-5-(2-chloro-6-oxo-1,6-dihydro-pyrimidin-5-yl)-2-methoxy-phenyl]-vinyl}-phenyl)-methanesulfonamide]
other
  melting point: > 300 °C
[2]; [5]
  IC50: 5 nM

## COc1c(/C=C/c2ccc(NS(C)(=O)=O)cc2)cc(-c2cnc(N(C)C)[nH]c2=O)cc1C(C)(C)C [Compound I-33, N-(4-{(E)-2-[3-tert-Butyl-5-(2-dimethylamino-6-oxo-1,6-dihydro-pyrimidin-5-yl)-2-methoxy-phenyl]-vinyl}-phenyl)-methanesulfonamide]
other
  melting point: > 300 °C
[2]; [5]
  IC50: 2.6 nM

## COc1ncc(-c2cc(/C=C/c3ccc(NS(C)(=O)=O)cc3)c(OC)c(C(C)(C)C)c2)c(=O)[nH]1 [Compound I-34, N-(4-{(E)-2-[3-tert-Butyl-2-methoxy-5-(2-methoxy-6-oxo-1,6-dihydro-pyrimidin-5-yl)-phenyl]-vinyl}-phenyl) methanesulfonamide]
other
  melting point: 296 to 299 °C
[2]; [5]
  IC50: 0.6 nM

## COc1c(/C=C/c2ccc(NS(C)(=O)=O)cc2)cc(-c2c[nH]c(=O)[nH]c2=O)cc1C(F)(F)F [Compound I-35, N-(4-{(E)-2-[5-(2,4-Dioxo-1,2,3,4-tetrahydro-pyrimidin-5-yl)-2-methoxy-3-trifluoromethyl-phenyl]-vinyl}-phenyl)-methanesulfonamide]
other
  melting point: 255 to 258 °C
[2]; [5]
  IC50: 0.5 nM

## COCc1cc(NS(C)(=O)=O)ccc1/C=C/c1cc(-c2c[nH]c(=O)[nH]c2=O)cc(C(C)(C)C)c1OC [Compound I-40, N-(4-{(E)-2-[3-tert-Butyl-5-(2,4-dioxo-1,2,3,4-tetrahydro-pyrimidin-5-yl)-2-methoxy-phenyl]-vinyl}-3-methoxymethyl-phenyl)-methanesulfonamide]
other
  melting point: 172 to 175 °C
[2]; [5]
  IC50: 2.8 nM

## COc1c(/C=C/c2ccc(NS(C)(=O)=O)cc2)cc(-c2c[nH]c(=O)[nH]c2=O)cc1OC(F)(F)F [Compound I-42, N-(4-{(E)-2-[5-(2,4-Dioxo-1,2,3,4-tetrahydro-pyrimidin-5-yl)-2-methoxy-3-trifluoromethoxy-phenyl]-vinyl}-phenyl)-methanesulfonamide]
other
  melting point: 202 to 205 °C
[2]; [5]
  IC50: 6.7 nM

## NC(=O)c1ncn([C@@H]2O[C@H](CO)[C@@H](O)[C@H]2O)n1 [ribavirin, 1-((2R,3R,4S,5R)-3,4-Dihydroxy-5-hydroxymethyl-tetrahydro-furan-2-yl)-1H[1,2,4]triazole-3-carboxylic acid amide]
[4]; monotherapy / sole treatment
  serum levels of HCV-RNA: does not lower serum levels of HCV-RNA
[4]; monotherapy
  patients with serum amino transferase levels reduced to normal: 40%
